We go through four compounds from US20250034216A1, “STEREOSELECTIVE COVALENT LIGANDS FOR ONCOGENIC AND IMMUNOLOGICAL PROTEINS” (The Scripps Research Institute, priority 2021, published 2025).

The assay deals with T1, VWA5B2_C1040 (Homo sapiens, UniProt Q8N398).
T1 construct: endogenous in cells; host or cells: 22Rv1
T1 sequence (Q8N398 1-1242): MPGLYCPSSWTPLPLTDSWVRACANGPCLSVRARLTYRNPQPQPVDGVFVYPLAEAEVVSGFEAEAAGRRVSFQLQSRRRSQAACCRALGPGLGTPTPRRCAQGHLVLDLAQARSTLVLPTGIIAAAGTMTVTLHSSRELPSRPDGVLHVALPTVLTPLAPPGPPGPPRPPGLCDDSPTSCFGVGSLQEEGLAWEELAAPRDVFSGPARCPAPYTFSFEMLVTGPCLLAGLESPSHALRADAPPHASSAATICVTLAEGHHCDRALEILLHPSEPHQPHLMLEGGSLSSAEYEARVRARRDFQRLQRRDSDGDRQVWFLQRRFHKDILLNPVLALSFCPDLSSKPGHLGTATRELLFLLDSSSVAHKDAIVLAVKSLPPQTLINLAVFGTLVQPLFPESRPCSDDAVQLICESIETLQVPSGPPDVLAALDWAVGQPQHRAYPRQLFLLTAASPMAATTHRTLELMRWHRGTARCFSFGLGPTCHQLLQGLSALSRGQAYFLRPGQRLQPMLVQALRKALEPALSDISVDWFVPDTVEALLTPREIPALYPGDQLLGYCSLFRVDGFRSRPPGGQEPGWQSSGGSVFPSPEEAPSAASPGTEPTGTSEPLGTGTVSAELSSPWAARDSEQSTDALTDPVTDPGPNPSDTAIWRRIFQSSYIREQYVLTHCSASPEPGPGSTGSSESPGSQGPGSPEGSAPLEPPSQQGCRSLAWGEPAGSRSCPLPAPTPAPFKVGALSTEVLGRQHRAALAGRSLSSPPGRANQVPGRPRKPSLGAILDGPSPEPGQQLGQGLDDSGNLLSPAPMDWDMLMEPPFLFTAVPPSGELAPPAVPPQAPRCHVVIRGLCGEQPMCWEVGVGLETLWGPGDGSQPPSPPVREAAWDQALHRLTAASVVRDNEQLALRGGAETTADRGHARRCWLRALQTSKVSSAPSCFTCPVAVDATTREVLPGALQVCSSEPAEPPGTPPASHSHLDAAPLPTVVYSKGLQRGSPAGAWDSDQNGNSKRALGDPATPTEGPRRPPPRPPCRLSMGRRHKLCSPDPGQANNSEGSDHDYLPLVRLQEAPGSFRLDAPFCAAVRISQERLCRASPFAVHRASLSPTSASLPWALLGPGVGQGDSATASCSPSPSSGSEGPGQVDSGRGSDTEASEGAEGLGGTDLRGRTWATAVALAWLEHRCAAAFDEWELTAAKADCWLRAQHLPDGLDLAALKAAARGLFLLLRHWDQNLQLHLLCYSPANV
Description: IA-DTB cysteine engagement. The class given is binding. The note with it: 22Rv1 cells, 20 μM probe, 1 h, relative to DMSO. In short, it runs like this: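 Read-out is TMT-based cysteine engagement, expressed as each reporter ion intensity divided by the average of the DMSO channels. Before that, probe-treated cell lysates were capped with IA-DTB, digested, enriched on streptavidin and TMT-tagged. PSMs with DMSO summed intensity <10,000 or DMSO CV >0.5 were excluded.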

Turning to `C=CC(=O)N1C[C@H](c2ccc(Br)cc2)[C@@H]1C(=O)Nc1cccc2cccnc12` [MY-1B, (2R,3S)-1-acryloyl-3-(4-bromophenyl)-N-(quinolin-8-yl)azetidine-2-carboxamide], the “% engagement VWA5B2_C1040” value is recorded as 76.25%.
As to `C=CC(=O)N1C[C@H](c2ccc(Br)cc2)[C@H]1C(=O)Nc1cccc2cccnc12` [MY-3B, (2S,3S)-1-acryloyl-3-(4-bromophenyl)-N-(quinolin-8-yl)azetidine-2-carboxamide], the “% engagement VWA5B2_C1040” value came out at 74.25%.
Turning to `C=CC(=O)N1C[C@H](c2ccc(Br)cc2)[C@H]1C(=O)Nc1cccc2cccnc12` [MY-3A, (2S,3S)-1-acryloyl-3-(4-bromophenyl)-N-(quinolin-8-yl)azetidine-2-carboxamide], the “% engagement VWA5B2_C1040” value was 51.5%.
For the compound `C=CC(=O)N1C[C@@H](c2ccc(Br)cc2)[C@H]1C(=O)Nc1cccc2cccnc12` [MY-1A, (2S,3R)-1-acryloyl-3-(4-bromophenyl)-N-(quinolin-8-yl)azetidine-2-carboxamide], the “% engagement VWA5B2_C1040” value is reported as 76.5%.
